≈ marks a conversion by molar mass, not a printed value. Like-named read-outs stand apart in the source and are kept apart here.
What was measured:
Type in all cases: cell-based
[1] = system: Streptococcus pneumoniae (Chester, ATCC49619); assay: broth microdilution MIC assay, Streptococcus pneumoniae; conditions: MIC100 class score, 24 h
[2] = system: Staphylococcus aureus MSSA (Newman); assay: broth microdilution MIC assay, Staphylococcus aureus MSSA (Newman); conditions: for Antibacterial activity Staphylococcus aureus (MSSA): MIC100 class score, broth microdilution; for MIC: Staphylococcus aureus
[3] = system: Staphylococcus aureus MRSA (COL); assay: broth microdilution MIC assay, Staphylococcus aureus MRSA (COL); conditions: 24 h; for Antibacterial activity Staphylococcus aureus (MRSA): MIC100 class score, broth microdilution; for MIC: Staphylococcus aureus, MRSA, read-out: Antibacterial activity Staphylococcus aureus (MRSA)

| Compound | Antibacterial activity Streptococcus pneumoniae [1] | Antibacterial activity Staphylococcus aureus (MRSA) [3] | other results |
| --- | --- | --- | --- |
| Cc1[nH]c(-c2ccc(-c3ccc(F)cc3)s2)nc1-c1ccccc1 [Compound 7] | 3 (MIC100 of 2-5 μg/ml) |  |  |
| Cc1[nH]c(-c2csc(-c3ccc(F)cc3)n2)nc1-c1ccccc1 [Compound 11] | 3 (MIC100 of 2-5 μg/ml) |  |  |
| Cc1[nH]c(-c2ccc(-c3cccc(Cl)c3)s2)nc1-c1ccccc1 [Compound 12] | 3 (MIC100 of 2-5 μg/ml) |  |  |
| Cc1[nH]c(-c2ccc(-c3cccc(Br)c3)s2)nc1-c1ccccc1 [Compound 13] | 2 (MIC100 of 6-10 μg/ml) |  |  |
| Cc1[nH]c(-c2csc(-c3cccc(Br)c3)n2)nc1-c1ccccc1 [Compound 14] | 3 (MIC100 of 2-5 μg/ml) |  |  |
| Cc1[nH]c(-c2ccc(-c3ccccc3C(F)(F)F)o2)nc1-c1cccc(Cl)c1 [Compound 22] | 3 (MIC100 of 2-5 μg/ml) |  | Antibacterial activity Staphylococcus aureus (MSSA) ([2]; 24 h): 2 (MIC100 of 11-201 μg/ml); MIC ([2]; read-out: Antibacterial activity MSSA (Staphylococcus aureus MSSA)): 11 to 201 µg/mL (≈ 27.3 to 499 µM) |
| Cc1ccc(-c2ccc(-c3nc(-c4ccccc4)c(C)[nH]3)s2)cc1 [Compound 54] | 2 (MIC100 of 6-10 μg/ml) |  |  |
| Cc1ccc(-c2ncc(-c3nc(-c4ccccc4)c(C)[nH]3)s2)cc1 [Compound 55] | 3 (MIC100 of 2-5 μg/ml) |  |  |
| Cc1ccc(-c2nc(-c3nc(-c4ccccc4)c(C)[nH]3)cs2)cc1 [Compound 56] | 3 (MIC100 of 2-5 μg/ml) |  |  |
| Cc1ccc(-c2nc(-c3nc(-c4ccccc4)c(C)[nH]3)co2)cc1 [Compound 57] | 3 (MIC100 of 2-5 μg/ml) |  |  |
| Cc1[nH]c(-c2ccc(-c3ccccc3)s2)nc1-c1ccccc1 [Compound 74] | 3 (MIC100 of 2-5 μg/ml) |  |  |
| FC(F)(F)c1ccccc1-c1ccc(-c2ncc(-c3ccccc3)[nH]2)o1 [Compound 75] |  |  | MIC ([2]; 24 h, read-out: Antibacterial activity Staphylococcus aureus (MSSA)): 11 to 201 µg/mL (≈ 31 to 567 µM) |
| Cc1[nH]c(-c2ccc(-c3ccccc3OC(F)(F)F)o2)nc1-c1ccc(O)cc1 [Compound 76] | 3 (MIC100 of 2-5 μg/ml) |  | Antibacterial activity Staphylococcus aureus (MSSA) ([2]; 24 h): 3 (MIC100 of 3-10 μg/ml) |
| Cc1[nH]c(-c2ccc(-c3ccccc3F)o2)nc1-c1ccc(O)cc1 [Compound 77] | 3 (MIC100 of 2-5 μg/ml) |  | Antibacterial activity Staphylococcus aureus (MSSA) ([2]; 24 h): 3 (MIC100 of 3-10 μg/ml) |
| COc1ccc(-c2ccc(-c3nc(C)c(-c4ccc(O)cc4)[nH]3)o2)cc1 [Compound 79] | 3 (MIC100 of 2-5 μg/ml) |  |  |
| CCCc1[nH]c(-c2ccc(-c3ccccc3Cl)s2)nc1C [Compound 82] |  | 3 (MIC100 of 3-10 μg/ml) |  |

| Compound | Antibacterial activity Streptococcus pneumoniae [1] | Antibacterial activity Staphylococcus aureus (MRSA) [3] | other results |
| --- | --- | --- | --- |
| Brc1ccccc1-c1ccc(-c2ncc(-c3ccccc3)[nH]2)o1 [Compound 83] | 3 (MIC100 of 2-5 μg/ml) |  |  |
| Cc1nc(-c2ccc(-c3ccccc3Br)o2)[nH]c1C [Compound 84] |  |  | MIC [3]: 11 to 201 µg/mL (≈ 34.7 to 634 µM) |
| Cc1nc(-c2ccc(-c3ccccc3OC(F)(F)F)o2)[nH]c1C [Compound 85] |  |  | MIC [3]: 1 to 3 µg/mL (≈ 3.1 to 9.31 µM) |
| CCCCc1nc(-c2ccc(-c3ccccc3C(F)(F)F)o2)[nH]c1C [Compound 90] | 3 (MIC100 of 2-5 μg/ml) |  |  |
| CCCc1[nH]c(-c2ccc(-c3ccccc3)o2)nc1C [Compound 94] | 3 (MIC100 of 2-5 μg/ml) | 3 (MIC100 of 3-10 μg/ml) |  |
| CCCc1[nH]c(-c2ccc(-c3ccccc3[N+](=O)[O-])o2)nc1C [Compound 97] | 2 (MIC100 of 6-10 μg/ml) | 2 (MIC100 of 11-201 μg/ml) |  |
| CCCc1nc(-c2ccc(-c3ccccc3N(C)C)o2)[nH]c1C [Compound 98] |  | 3 (MIC100 of 3-10 μg/ml) |  |
| CCCc1nc(-c2ccc(-c3ccccc3C)o2)[nH]c1C [Compound 100] | 3 (MIC100 of 2-5 μg/ml) | 2 (MIC100 of 11-201 μg/ml) |  |
| CCCc1[nH]c(-c2ccc(-c3ccccc3C(F)(F)F)o2)nc1C [Compound 101] | 3 (MIC100 of 2-5 μg/ml) |  |  |
| CCCc1nc(-c2ccc(-c3ccccc3OC)o2)[nH]c1C [Compound 102] | 3 (MIC100 of 2-5 μg/ml) |  |  |
| CCCc1nc(-c2ccc(-c3c(C)cccc3C)o2)[nH]c1C [Compound 103] | 3 (MIC100 of 2-5 μg/ml) | 3 (MIC100 of 3-10 μg/ml) |  |
| CCCc1nc(-c2ccc(-c3ccc(C(F)(F)F)cc3)o2)[nH]c1C [Compound 104] | 3 (MIC100 of 2-5 μg/ml) | 3 (MIC100 of 3-10 μg/ml) |  |
| CCCc1[nH]c(-c2ccc(-c3cccc4[nH]ccc34)o2)nc1C [Compound 108] | 2 (MIC100 of 6-10 μg/ml) | 2 (MIC100 of 11-201 μg/ml) |  |
| CCCc1[nH]c(-c2ccc(-c3ccc(Cl)cc3Cl)o2)nc1C [Compound 109] |  | 2 (MIC100 of 11-201 μg/ml) |  |
| CCCc1[nH]c(-c2ccc(-c3cc(F)ccc3C(F)(F)F)o2)nc1C [Compound 111] | 3 (MIC100 of 2-5 μg/ml) |  |  |
| CCCc1nc(-c2coc(-c3ccccc3C(F)(F)F)c2)[nH]c1C [Compound 112] |  | 3 (MIC100 of 3-10 μg/ml) |  |
